Key:
Assay type in all cases: in vivo, human
[1] = test system: ALT, GGT, BUN, total cholesterol, LDL-C, triglyceride; experiment: Liver Fat Study: normalization of labs (ALT, GGT, BUN, total cholesterol, LDL-C, triglyceride) at end of study (Example 6)
Description: (§1) This example is part of an ongoing Liver Fat Study which is an open-label, multi-center, single arm study evaluating LPCN 1144 treatment (e.g., androgen therapy, testosterone therapy, oral testosterone ester, or 225 mg testosterone undecanoate orally) in a cohort of 36 hypogonadal males (NCT03868059). Subjects with at least 10% baseline liver fat were evaluated which is indicative of subjects with NAFLD with the potential to have NASH. Interim results of seven of the nine subjects in the Liver Fat Study with baseline liver fat of at least 10% are presented as two subjects were unable to schedule an eight-week MRI-PDFF visit. Baseline mean liver fat of these seven subjects was 21.0%.
(§2) An MRI-PDFF study of 36 male hypogonadal subjects (having 2 morning testosterone levels of 300 ng/dL or less) was performed as part of an ongoing trial. Basic baseline labs including liver function tests (e.g., AST & ALT) and serum triglycerides were collected and analyzed. It was found by non-linear regression, that BMI (ALT, AST, serum Triglyceride) was associated with liver fat (P<0.006). It was found by non-linear regression, that serum triglyceride levels (obesity, hypertension, type 2 diabetes) were associated with liver fat (P<0.006).

[2] = test system: Lipoprotein-associated phospholipase A2; experiment: Lipoprotein-associated phospholipase A2, change from baseline to end of study, trial of Example 1
Description: (§3) Oral testosterone therapy was evaluated in a multicenter, phase 3, randomized, open-label, active controlled, parallel-group study that included a 13-week efficacy phase and a 52-week safety phase. An active arm in which subjects received T gel was included for safety evaluation only.
(§4) Subjects were randomized in a 2:1 ratio to oral testosterone undecanoate or T gel. oral testosterone undecanoate subjects started at a dose of 225 mg TU (“testosterone undecanoate”) taken twice daily (total daily dose: 450 mg TU) every 12 hours. For optimal lymphatic absorption oral testosterone undecanoate must be administered with a meal. Therefore, subjects were instructed to administer oral testosterone undecanoate after a standard meal (defined as a meal consisting of 800 to 1400 calories with approximately 20% to 35% fat content). The oral testosterone undecanoate dose was titrated at Weeks 4 and 8, if necessary, based on results of intensive 24-hour PK blood sampling obtained at Weeks 3 and 7, respectively. Oral testosterone undecanoate subjects stayed at the clinic overnight during each intensive PK blood sampling period. […] Oral testosterone undecanoate dose levels permitted during the study were 150 mg BID, 225 mg BID, and 300 mg BID. Data collected during an intensive 24-hour PK sampling overnight stay at Week 13 were used for efficacy analysis; dose was not adjusted at this visit. Additional outpatient visits were conducted at Weeks 26, 39, and 52 during which single blood draws were performed 3 to 6 hours post morning dose. Dose was not adjusted during these visits.
T gel (ANDROGEL®) (testosterone gel for topical use) 1.62%, AbbVie, Chicago, Illinois, US) was supplied in non-aerosol, metered dose pumps that deliver 20.25 mg T per complete pump actuation. T gel was dosed according to product labeling. Subjects receiving T gel completed outpatient visits at Weeks 2 and 4 with single blood draws to determine titration and at Weeks 3 and 5 for dose changes, if necessary. They also completed an outpatient visit at Week 7 for safety assessments and at Weeks 13, 26, 39 and 52 during which single blood samples were obtained 3 to 6 hours after the morning dose. Dose was not adjusted during these visits. Overnight clinic stays were not required for T gel subjects.
Safety endpoints included adverse events (AEs), physical examination findings, vital signs, electrocardiograms (ECGs), and clinical laboratory tests. AEs were classified using the Medical Dictionary for Regulatory Activities (Version 16.1). Safety endpoints were summarized using descriptive statistics. Lab parameters were evaluated using two sample t-tests comparing change from baseline to end of study (EOS) across oral testosterone undecanoate and T gel subjects with p-values <0.05 considered statistically significant.

[3] = Serum testosterone pharmacokinetics (24-hour PK sampling, LC-MS/MS), phase 3 oral testosterone undecanoate trial of Example 1; details: for Average serum T levels: single blood draw 3 to 6 hours post morning dose
Description: as §3
Males 18 through 80 years old with a documented diagnosis of primary hypogonadism (congenital or acquired) or hypogonadotropic hypogonadism (congenital or acquired) and with morning serum T<300 ng/dL based on 2 consecutive blood samples obtained between 0600 and 1000 on 2 separate days at approximately the same time were eligible to participate. Subjects were either naïve to T therapy or completed an adequate washout of T therapy (eg, 12 weeks after intramuscular androgen injections excluding TU injections which required a longer waiting period; 4 weeks after topical or buccal androgens; and 3 weeks after oral androgens). Exclusion criteria included abnormal prostate digital rectal examination with palpable nodule(s) or International Prostate Symptom Score (IPSS)>19 points; body mass index ≥38 kg/m^2, clinically significant laboratory values (baseline hemoglobin <11.5 or >16.5 g/dL, hematocrit <35% or >54%, serum transaminases >2.5 times upper limit of normal, serum bilirubin >2.0 mg/dL, creatinine >2.0 mg/dL, prostate specific antigen [PSA]>2 ng/mL, prolactin >17.7 ng/mL); history of seizures or convulsions; any surgical procedure that might interfere with gastrointestinal motility, pH, or absorption; stroke or myocardial infarction within 5 years; current or suspected prostate or breast cancer; severe, untreated, obstructive sleep apnea; long QT syndrome or unexplained sudden death in first-degree relative; concurrent medication use that could impact absorption, distribution, metabolism, or excretion of TU or place subject at risk for treatment with T; and dose changes of antihypertensive, lipid-lowering, or hypoglycemic agents within previous 3 months.
as §4
Serum levels of T, TU, dihydrotestosterone (DHT), dihydrotestosterone undecanoate (DHTU), and estradiol (E2) were evaluated in oral testosterone undecanoate treated subjects. […] Sex hormone binding globulin (SHBG) was evaluated in data from all subjects. Serum T concentrations at screening were measured using chemiluminescence immunoassay kits. Hormone assays for pharmacokinetic assessment were analyzed at PPD Bioanalytical Laboratory in Richmond, Virginia Serum samples were analyzed for T, DHT, TU, DHTU, and E2 using a validated liquid chromatography-tandem mass spectrometry (LC-MS/MS) assay.

liver fat = experiment: Liver Fat Study: liver fat by MRI-PDFF in hypogonadal males treated with LPCN 1144 (Example 6); details: for Mean relative liver fat % change: 16 weeks of treatment
Description: In an a prospective design open-label, multi-center, single arm ‘Liver Fat Study’ evaluating LPCN 1144 (oral testosterone undecanoate) treatment in hypogonadal patients, baseline % liver fat was assessed via MRI-PDFF in a subset of study patients (N=36).
as §1, §2

[4] = 4th quartile patients based on lab parameter level, 1 Year Oral TU Study
[5] = interim, eight-week MRI-PDFF, seven subjects with baseline liver fat of at least 10%

For CCCCCCCCCCC(=O)O[C@H]1CC[C@H]2[C@@H]3CCC4=CC(=O)CC[C@]4(C)[C@H]3CC[C@]12C [oral testosterone undecanoate, testosterone undecanoate], which “normalization rate for LDL-C” value [1] is on record?
Its value is 50%.

And the “normalization rate for total cholesterol” value [1]?
Its value is 29%.

And the “normalization rate for triglyceride” value [1]?
The value was 21%.

And the “subjects with BUN normalization” value [1]?
The value was 60%.

And the “subjects with above normal GGT levels who ended the study with normal GGT levels” value [1]?
The value was 0%.

What about the “subjects with above normal ALT levels who ended the study with normal ALT levels” value ([1]; mean baseline ALT 48.7) of the same compound?
The value was 100%.

What about the “Lp-PLA2, mean change from baseline” value [2, 4] of the same compound?
The value was -47.8 ng/mL.

And the “Lp-PLA2, mean change from baseline, %” value [2, 4]?
Its value is −17.1%.

And the “Lp-PLA2, mean (SD) change from baseline to end of study” value ([2]; Safety Set, baseline to end of study)?
The value was −9.6 (42.07) ng/mL.

What about the “Lipoprotein-associated phospholipase A2, baseline to EOS” value ([2]; difference in change between groups not significant) of the same compound?
The value was “decreased significantly”.

And the “serum T Cavg0-24 h” value ([3]; Week 13)?
Its value is 446 ng/dL.

And the “serum T Cmax” value ([3]; Week 13)?
Its value is 1134 ng/dL.

And the “subjects with serum T Cavg0-24 h between 300 and 1140 ng/dL” value ([3]; Week 13, 95% lower bound CI: 81.7%, met predefined efficacy criteria)?
The value was 87.4%.

And the “Average serum T levels” value ([3]; Week 26)?
The value was 481 ± 371 ng/dL.

What about the “Average serum T levels” value ([3]; Week 39) of the same compound?
The value was 543 ± 438 ng/dL.

What about the “Average serum T levels” value ([3]; Week 52) of the same compound?
The value was 538 ± 545 ng/dL.

And the “Mean relative liver fat % change” value (liver fat; baseline liver fat of 8% or greater)?
The value was −42%.

And the “Mean relative liver fat % change” value (liver fat; baseline liver fat of 10% or greater)?
The value was −40%.

What about the “Mean relative liver fat % change” value (liver fat; subjects having NAFLD (baseline liver fat of 5% or greater)) of the same compound?
Its value is −33%.

And the “NAFLD resolved (baseline liver fat greater than or equal to 5% going to less than 5% at end of study), % of subjects” value (liver fat; end of study)?
The value was 48%.

What about the “mean relative liver fat change in patients with NAFLD resolution” value (liver fat; end of study) of the same compound?
The value was −55%.

And the “responder rate (% of patients with at least a 30% relative reduction in liver fat from baseline)” value (liver fat; end of study, greater than or equal to 5% baseline liver fat)?
Its value is 71%.

And the “responder rate (% of patients with at least a 30% relative reduction in liver fat from baseline)” value (liver fat; end of study, greater than or equal to 8% baseline liver fat)?
Its value is 80%.

What about the “responder rate (% of patients with at least a 30% relative reduction in liver fat from baseline)” value (liver fat; end of study, greater than or equal to 10% baseline liver fat) of the same compound?
The value was 70%.

And the “relative mean liver fat reduction from baseline” value (liver fat; [5])?
The value was 38%.

And the “responder rate: at least a 4.1% absolute reduction in liver fat from baseline” value (liver fat; [5])?
The value was 86%.

And the “responder rate: at least a 29% reduction in liver fat from baseline” value (liver fat; [5])?
Its value is 71%.

What about the “absolute mean reduction from baseline of liver fat (MRI-PDFF)” value (liver fat; interim, eight-week MRI-PDFF, seven subjects with baseline liver fat of at least 10%, baseline mean 21.0%) of the same compound?
The value was 7.6%.

Reference: US12150945B2, “Liver disease” (Lipocine Inc., priority 2018, dated 2024)
